Earlier results, collected in PubChem BioAssay AID1259409 (Chemical Carcinogenesis Research Information System (CCRIS), 2018).

System: rodent chemically induced tumor inhibition, incidence and multiplicity
Assay: CCRIS tumor inhibitor studies
Conditions: Species: MOUSE

## Cc1[nH]cnc1CSCCN=C(NC#N)N(C)N=O
Carcinogen: 7,12-DIMETHYLBENZ[A]ANTHRACENE, 57-97-6, Dose [Inhibitor]: 1 G/L IN DRINKING WATER AD LIBITUM BEGINNING 1 WK POST PROMOTER DOSE FOR DURATION OF STUDY (STUDY DURATION: 52 WK), Route [Inhibitor]: ORAL, Strain/Sex: SENCAR/FEMALE, Target Tissue: Type of Lesion: SKIN: CARCINOMA, Dose [Carcinogen]: 120 UG IN 0.2 ML ACETONE ONCE, Promoter: 12-O-TETRADECANOYLPHORBOL-13-ACETATE, 16561-29-8
  tumour outcome (control, treated, inhibition, significance): 24/30 (80%), 18/25 (72%), 10%, not calculated
Carcinogen: 7,12-DIMETHYLBENZ[A]ANTHRACENE, 57-97-6, Dose [Inhibitor]: 1 G/L IN DRINKING WATER AD LIBITUM BEGINNING 1 WK POST PROMOTER DOSE FOR DURATION OF STUDY (STUDY DURATION: 52 WK), Route [Inhibitor]: ORAL, Strain/Sex: SENCAR/FEMALE, Target Tissue: Type of Lesion: SKIN: KERATOACANTHOMA, Dose [Carcinogen]: 120 UG IN 0.2 ML ACETONE ONCE, Promoter: 12-O-TETRADECANOYLPHORBOL-13-ACETATE, 16561-29-8
  tumour outcome (control, treated, inhibition, significance): 16/30 (53%), 8/25 (32%), 40%, p<0.05
Carcinogen: 7,12-DIMETHYLBENZ[A]ANTHRACENE, 57-97-6, Dose [Inhibitor]: 1 MG/WK BEGINNING 1 WK POST FIRST PROMOTER DOSE FOR DURATION OF STUDY (STUDY DURATION: 52 WK), Route [Inhibitor]: DERMAL, Strain/Sex: SENCAR/FEMALE, Target Tissue: Type of Lesion: SKIN: CARCINOMA, Dose [Carcinogen]: 120 UG IN 0.2 ML ACETONE ONCE, Promoter: 12-O-TETRADECANOYLPHORBOL-13-ACETATE, 16561-29-8
  tumour outcome (control, treated, inhibition, significance): 24/30 (80%), 23/30 (77%), 4%, not calculated
Carcinogen: 7,12-DIMETHYLBENZ[A]ANTHRACENE, 57-97-6, Dose [Inhibitor]: 1 MG/WK BEGINNING 1 WK POST FIRST PROMOTER DOSE FOR DURATION OF STUDY (STUDY DURATION: 52 WK), Route [Inhibitor]: DERMAL, Strain/Sex: SENCAR/FEMALE, Target Tissue: Type of Lesion: SKIN: KERATOACANTHOMA, Dose [Carcinogen]: 120 UG IN 0.2 ML ACETONE ONCE, Promoter: 12-O-TETRADECANOYLPHORBOL-13-ACETATE, 16561-29-8
  tumour outcome (control, treated, inhibition, significance): 16/30 (53%), 15/30 (50%), 6%, not calculated
Carcinogen: 7,12-DIMETHYLBENZ[A]ANTHRACENE, 57-97-6, Dose [Inhibitor]: 1130 PPM IN DRINKING WATER BEGINNING 1 WK POST LAST CARCINOGEN DOSE (STUDY DURATION: 14 MO), Route [Inhibitor]: ORAL, Strain/Sex: B6D2F1/FEMALE, Target Tissue: Type of Lesion: LUNG: TUMOR, Dose [Carcinogen]: 1 MG IN OLIVE OIL 1/WK FOR 4 WK, Promoter: NONE USED
  tumour outcome (control, treated, inhibition, significance): 11/27 (41%), 13/23 (56%), -37%, not calculated
Carcinogen: 7,12-DIMETHYLBENZ[A]ANTHRACENE, 57-97-6, Dose [Inhibitor]: 1130 PPM IN DRINKING WATER BEGINNING 1 WK POST LAST CARCINOGEN DOSE (STUDY DURATION: 14 MO), Route [Inhibitor]: ORAL, Strain/Sex: B6D2F1/FEMALE, Target Tissue: Type of Lesion: LYMPHOID TISSUE: NEOPLASMS, Dose [Carcinogen]: 1 MG IN OLIVE OIL 1/WK FOR 4 WK, Promoter: NONE USE
  tumour outcome (control, treated, inhibition, significance): 12/29 (41%), 12/28 (43%), -4%, not calculated
Carcinogen: 7,12-DIMETHYLBENZ[A]ANTHRACENE, 57-97-6, Dose [Inhibitor]: 1130 PPM IN DRINKING WATER BEGINNING 1 WK POST LAST CARCINOGEN DOSE (STUDY DURATION: 14 MO), Route [Inhibitor]: ORAL, Strain/Sex: B6D2F1/FEMALE, Target Tissue: Type of Lesion: MAMMARY GLAND: TUMOR, Dose [Carcinogen]: 1 MG IN OLIVE OIL 1/WK FOR 4 WK, Promoter: NONE USED
  tumour outcome (control, treated, inhibition, significance): 7/29 (24%), 7/28 (25%), -4%, not calculated
Carcinogen: URETHANE, 51-79-6, Dose [Inhibitor]: 1000 PPM IN DRINKING WATER BEGINNING 10 WK POST LAST CARCINOGEN DOSE (STUDY DURATION: 14 MO), Route [Inhibitor]: ORAL, Strain/Sex: BALB/MALE, Target Tissue: Type of Lesion: LUNG: TUMOR, Dose [Carcinogen]: 1 G/KG 1/WK FOR 2 WK, Promoter: NONE USED
  tumour outcome (control, treated, inhibition, significance): 20/20 (100%), 17/17 (100%), 0%, not calculated
Carcinogen: URETHANE, 51-79-6, Dose [Inhibitor]: 1800 PPM IN DRINKING WATER BEGINNING 10 WK POST LAST CARCINOGEN DOSE (STUDY DURATION: 14 MO), Route [Inhibitor]: ORAL, Strain/Sex: BALB/MALE, Target Tissue: Type of Lesion: LUNG: TUMOR, Dose [Carcinogen]: 1 G/KG 1/WK FOR 2 WK, Promoter: NONE USED
  tumour outcome (control, treated, inhibition, significance): 20/20 (100%), 17/17 (100%), 0%, not calculated
